Results from ChEMBL document CHEMBL2169851, “Imidazopyridazinones as novel PDE7 inhibitors: SAR and in vivo studies in Parkinson's disease model” (Bioorg Med Chem Lett, 2012).
pIC50: −log10 of the molar value. Values belong to the compound of their own block, whether it stands above or below them. Active and inactive are the calls of the source. No cut-off for these calls is given here.

Tests used:
Mus musculus [1] = assay: Antiparkinsonian activity in C57BL/6 mouse assessed as decrease in MPTP-induced vertical rearing behavior impairment at 15 mg/kg, sc administered 30 mins on day 7 post MPTP challenge; assay type: functional, organism-based; set-up: dose 15 mg/kg
[2] = biological target: High affinity cGMP-specific 3',5'-cyclic phosphodiesterase 9A (Homo sapiens) (UniProt O76083); assay: Inhibition of cloned human recombinant PDE9A2 assessed as [3H]cAMP hydrolysis at 10 uM by radiometric assay
[3] = biological target: cGMP-inhibited 3',5'-cyclic phosphodiesterase 3A (Homo sapiens) (UniProt Q14432); assay: Inhibition of cloned human recombinant PDE3A assessed as [3H]cAMP hydrolysis at 10 uM by radiometric assay
[4] = Drug uptake in C57 mouse brain at 10 mg/kg, ip after 30 mins; assay type: ADME, organism-based; set-up: dose 10 mg/kg, route intraperitoneal; conditions: read-out: Drug uptake
[5] = Cmax in C57 mouse at 10 mg/kg, ip; assay type: ADME, organism-based; set-up: dose 10 mg/kg, route intraperitoneal; conditions: in vivo
Homo sapiens [6] = species on record: Homo sapiens; assay: Selectivity ratio of IC50 for cloned human recombinant PDE4D to IC50 for cloned human recombinant PDE7B
[7] = Metabolic stability in human liver microsomes assessed as compound remaining after 60 mins; assay type: ADME, Microsome; conditions: read-out: Stability
[8] = biological target: T1, 3',5'-cyclic-AMP phosphodiesterase 4D (Homo sapiens, UniProt Q08499); assay: Inhibition of cloned human recombinant PDE4D assessed as [3H]cAMP hydrolysis by radiometric assay
[9] = biological target: Dual specificity calcium/calmodulin-dependent 3',5'-cyclic nucleotide phosphodiesterase 1A (Homo sapiens) (UniProt P54750); assay: Inhibition of cloned human recombinant PDE1A assessed as [3H]cAMP hydrolysis at 10 uM by radiometric assay
[10] = biological target: cGMP-specific 3',5'-cyclic phosphodiesterase (Homo sapiens) (UniProt O76074); assay: Inhibition of cloned human recombinant PDE5A assessed as [3H]cAMP hydrolysis at 10 uM by radiometric assay
[11] = biological target: cAMP and cAMP-inhibited cGMP 3',5'-cyclic phosphodiesterase 10A (Homo sapiens) (UniProt Q9Y233); assay: Inhibition of cloned human recombinant PDE10A assessed as [3H]cAMP hydrolysis at 10 uM by radiometric assay
[12] = AUC in C57 mouse at 10 mg/kg, ip; assay type: ADME, organism-based; set-up: dose 10 mg/kg, route intraperitoneal; conditions: plasma
[13] = Ratio of drug level in brain to plasma in C57 mouse at 10 mg/kg, ip after 30 mins; assay type: ADME, organism-based; set-up: dose 10 mg/kg, route intraperitoneal; conditions: read-out: BPR
[14] = Metabolic stability in rat liver microsomes assessed as compound remaining after 60 mins; assay type: ADME, Microsome; conditions: read-out: Stability
[15] = Tmax in C57 mouse at 10 mg/kg, ip; assay type: ADME, organism-based; set-up: dose 10 mg/kg, route intraperitoneal; conditions: in vivo
[16] = biological target: T1, 3',5'-cyclic-AMP phosphodiesterase 4D; assay: Inhibition of cloned human recombinant PDE4D assessed as [3H]cAMP hydrolysis at 10 uM by radiometric assay
Homo sapiens [17] = species on record: Homo sapiens; assay: Selectivity ratio of IC50 for cloned human recombinant PDE4D to IC50 for cloned human recombinant PDE7A
[18] = Plasma concentration in C57 mouse at 10 mg/kg, ip after 30 mins; assay type: ADME, organism-based; set-up: dose 10 mg/kg, route intraperitoneal
[19] = biological target: High affinity cAMP-specific and IBMX-insensitive 3',5'-cyclic phosphodiesterase 8A (Homo sapiens) (UniProt O60658); assay: Inhibition of cloned human recombinant PDE8A1 assessed as [3H]cAMP hydrolysis at 10 uM by radiometric assay
[20] = biological target: 3',5'-cyclic-AMP phosphodiesterase 7B (Homo sapiens, UniProt Q9NP56); assay: Inhibition of cloned human recombinant PDE7B assessed as [3H]cAMP hydrolysis by radiometric assay
[21] = biological target: Dual 3',5'-cyclic-AMP and -GMP phosphodiesterase 11A (Homo sapiens) (UniProt Q9HCR9); assay: Inhibition of cloned human recombinant PDE11A assessed as [3H]cAMP hydrolysis at 10 uM by radiometric assay
[22] = Metabolic stability in mouse liver microsomes assessed as compound remaining after 60 mins; assay type: ADME, Microsome; conditions: read-out: Stability
[23] = biological target: cGMP-dependent 3',5'-cyclic phosphodiesterase (Homo sapiens) (UniProt O00408); assay: Inhibition of cloned human recombinant PDE2A assessed as [3H]cAMP hydrolysis at 10 uM by radiometric assay
[24] = biological target: T2, High affinity 3',5'-cyclic-AMP phosphodiesterase 7A (Homo sapiens, UniProt Q13946); assay: Inhibition of cloned human recombinant PDE7A assessed as [3H]cAMP hydrolysis by radiometric assay
[25] = biological target: T2, High affinity 3',5'-cyclic-AMP phosphodiesterase 7A; assay: Inhibition of cloned human recombinant PDE7A assessed as [3H]cAMP hydrolysis at 1 uM by radiometric assay
[26] = Drug uptake in C57 mouse brain at 100 mg/kg, ip after 30 mins; assay type: ADME, organism-based; set-up: dose 100 mg/kg, route intraperitoneal; conditions: read-out: Drug uptake
Mus musculus [27] = assay: Antiparkinsonian activity in C57BL/6 mouse assessed as decrease in MPTP-induced rearing behavior impairment at 30 mg/kg, ip administered 15 mins on day 7 post MPTP challenge; assay type: functional, organism-based; set-up: dose 30 mg/kg
[28] = Tmax in C57 mouse at 100 mg/kg, ip; assay type: ADME, organism-based; set-up: dose 100 mg/kg, route intraperitoneal; conditions: in vivo
Mus musculus [29] = assay: Neurotoxicity in C57BL/6 mouse assessed as potentiation of haloperidol-induced catalepsy at 1 to 10 mg/kg, ip administered 15 mins prior to haloperidol challenge measured at 0.5 to 1 hr post haloperidol challenge; assay type: toxicity, organism-based; set-up: route intraperitoneal; conditions: in vivo
Mus musculus [30] = assay: Neurotoxicity in C57BL/6 mouse assessed as induction of catalepsy at 30 mg/kg, ip measured at 0.5 to 1 hr; assay type: toxicity, organism-based; set-up: dose 30 mg/kg, route intraperitoneal; conditions: in vivo
Brain [31] = assay: Free drug level in C57 mouse brain homogenate at 100 mg/kg, ip; assay type: ADME, organism-based; set-up: dose 100 mg/kg, route intraperitoneal; conditions: in vivo
[32] = Cmax in C57 mouse at 30 mg/kg, ip; assay type: ADME, organism-based; set-up: dose 30 mg/kg, route intraperitoneal; conditions: in vivo
[33] = AUC in C57 mouse at 30 mg/kg, ip; assay type: ADME, organism-based; set-up: dose 30 mg/kg, route intraperitoneal; conditions: plasma
[34] = Tmax in C57 mouse at 30 mg/kg, ip; assay type: ADME, organism-based; set-up: dose 30 mg/kg, route intraperitoneal; conditions: in vivo
[35] = Plasma concentration in C57 mouse at 30 mg/kg, ip after 30 mins; assay type: ADME, organism-based; set-up: dose 30 mg/kg, route intraperitoneal
[36] = Ratio of drug level in brain to plasma in C57 mouse at 30 mg/kg, ip after 30 mins; assay type: ADME, organism-based; set-up: dose 30 mg/kg, route intraperitoneal; conditions: read-out: BPR
[37] = Ratio of drug level in brain to plasma in C57 mouse at 100 mg/kg, ip after 30 mins; assay type: ADME, organism-based; set-up: dose 100 mg/kg, route intraperitoneal; conditions: read-out: BPR
Mus musculus [38] = assay: Neurotoxicity in C57BL/6 mouse assessed as induction of catalepsy at 1 to 10 mg/kg, ip measured at 0.5 to 1 hr; assay type: toxicity, organism-based; set-up: route intraperitoneal; conditions: in vivo
Mus musculus [39] = assay: Neurotoxicity in C57BL/6 mouse assessed as haloperidol-induced deffect in motor coordination at 3 mg/kg, ip administered 15 mins prior to haloperidol challenge measured at 0.5 to 1 hr post haloperidol challenge; assay type: toxicity, organism-based; set-up: dose 3 mg/kg, route intraperitoneal; conditions: in vivo
[40] = biological target: T3, High affinity 3',5'-cyclic-AMP phosphodiesterase 7A (Mus musculus, UniProt P70453); assay: Inhibition of mouse PDE7A assessed as [3H]cAMP hydrolysis after 5 to 15 mins by scintillation counter
T3 sequence (P70453 whole entry): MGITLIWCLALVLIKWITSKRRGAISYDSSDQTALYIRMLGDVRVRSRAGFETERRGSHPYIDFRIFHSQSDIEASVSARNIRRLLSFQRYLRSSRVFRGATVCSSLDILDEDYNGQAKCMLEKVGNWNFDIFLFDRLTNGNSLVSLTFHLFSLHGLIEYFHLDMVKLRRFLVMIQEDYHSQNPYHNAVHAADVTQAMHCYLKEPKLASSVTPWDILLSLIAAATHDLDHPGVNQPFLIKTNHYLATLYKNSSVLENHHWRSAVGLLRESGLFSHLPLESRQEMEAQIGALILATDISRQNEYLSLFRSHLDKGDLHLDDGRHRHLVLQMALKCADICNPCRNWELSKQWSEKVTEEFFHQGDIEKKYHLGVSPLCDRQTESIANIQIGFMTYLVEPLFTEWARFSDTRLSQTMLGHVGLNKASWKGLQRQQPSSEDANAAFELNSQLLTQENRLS

[41] = Drug uptake in C57 mouse brain at 30 mg/kg, ip after 30 mins; assay type: ADME, organism-based; set-up: dose 30 mg/kg, route intraperitoneal; conditions: read-out: Drug uptake
[42] = Plasma concentration in C57 mouse at 100 mg/kg, ip after 30 mins; assay type: ADME, organism-based; set-up: dose 100 mg/kg, route intraperitoneal
[43] = Cmax in C57 mouse at 100 mg/kg, ip; assay type: ADME, organism-based; set-up: dose 100 mg/kg, route intraperitoneal; conditions: in vivo
Brain [44] = assay: Free drug level in C57 mouse brain homogenate at 1 uM by high throughput dialysis method; assay type: ADME, tissue-based; conditions: in vivo
Brain [45] = assay: Free drug level in C57 mouse brain homogenate at 10 mg/kg, ip; assay type: ADME, organism-based; set-up: dose 10 mg/kg, route intraperitoneal; conditions: in vivo
[46] = AUC in C57 mouse at 100 mg/kg, ip; assay type: ADME, organism-based; set-up: dose 100 mg/kg, route intraperitoneal; conditions: plasma
Brain [47] = assay: Free drug level in C57 mouse brain homogenate at 30 mg/kg, ip; assay type: ADME, organism-based; set-up: dose 30 mg/kg, route intraperitoneal; conditions: in vivo

T1 sequence (Q08499 whole entry): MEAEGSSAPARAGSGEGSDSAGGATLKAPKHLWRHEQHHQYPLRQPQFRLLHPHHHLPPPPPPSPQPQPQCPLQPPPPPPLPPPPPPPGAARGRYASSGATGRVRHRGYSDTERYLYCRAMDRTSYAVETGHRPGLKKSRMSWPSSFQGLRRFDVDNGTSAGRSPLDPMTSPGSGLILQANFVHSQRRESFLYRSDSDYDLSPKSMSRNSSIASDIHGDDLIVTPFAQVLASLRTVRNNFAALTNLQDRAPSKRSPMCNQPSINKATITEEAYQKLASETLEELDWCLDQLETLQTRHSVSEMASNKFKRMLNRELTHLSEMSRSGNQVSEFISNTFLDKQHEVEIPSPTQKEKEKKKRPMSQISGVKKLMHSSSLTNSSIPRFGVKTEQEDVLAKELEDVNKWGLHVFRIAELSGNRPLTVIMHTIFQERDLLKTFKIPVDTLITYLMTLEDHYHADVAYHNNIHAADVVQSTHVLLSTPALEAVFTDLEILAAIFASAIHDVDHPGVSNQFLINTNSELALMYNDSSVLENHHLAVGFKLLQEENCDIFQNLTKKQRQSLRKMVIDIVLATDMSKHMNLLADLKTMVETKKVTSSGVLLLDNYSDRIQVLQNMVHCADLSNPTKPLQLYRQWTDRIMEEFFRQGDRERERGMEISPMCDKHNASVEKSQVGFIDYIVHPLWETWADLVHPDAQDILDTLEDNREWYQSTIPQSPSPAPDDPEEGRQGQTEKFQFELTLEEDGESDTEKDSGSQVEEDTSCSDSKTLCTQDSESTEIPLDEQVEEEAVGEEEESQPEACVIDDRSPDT
T2 sequence (Q13946 whole entry): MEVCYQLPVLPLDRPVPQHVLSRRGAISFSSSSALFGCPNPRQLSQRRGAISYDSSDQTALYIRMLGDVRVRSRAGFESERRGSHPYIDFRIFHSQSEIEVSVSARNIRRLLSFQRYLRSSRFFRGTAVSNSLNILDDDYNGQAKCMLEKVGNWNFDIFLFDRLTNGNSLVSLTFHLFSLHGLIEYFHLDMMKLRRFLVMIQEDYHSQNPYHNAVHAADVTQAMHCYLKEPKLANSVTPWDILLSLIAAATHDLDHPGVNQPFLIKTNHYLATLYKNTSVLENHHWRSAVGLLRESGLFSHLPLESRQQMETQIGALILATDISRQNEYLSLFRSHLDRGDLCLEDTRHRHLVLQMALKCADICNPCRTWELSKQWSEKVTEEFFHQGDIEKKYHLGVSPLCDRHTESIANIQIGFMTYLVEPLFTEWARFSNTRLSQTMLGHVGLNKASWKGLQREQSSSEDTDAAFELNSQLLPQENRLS
Sequence of cGMP-inhibited 3',5'-cyclic phosphodiesterase 3A (Homo sapiens) (Q14432 whole entry): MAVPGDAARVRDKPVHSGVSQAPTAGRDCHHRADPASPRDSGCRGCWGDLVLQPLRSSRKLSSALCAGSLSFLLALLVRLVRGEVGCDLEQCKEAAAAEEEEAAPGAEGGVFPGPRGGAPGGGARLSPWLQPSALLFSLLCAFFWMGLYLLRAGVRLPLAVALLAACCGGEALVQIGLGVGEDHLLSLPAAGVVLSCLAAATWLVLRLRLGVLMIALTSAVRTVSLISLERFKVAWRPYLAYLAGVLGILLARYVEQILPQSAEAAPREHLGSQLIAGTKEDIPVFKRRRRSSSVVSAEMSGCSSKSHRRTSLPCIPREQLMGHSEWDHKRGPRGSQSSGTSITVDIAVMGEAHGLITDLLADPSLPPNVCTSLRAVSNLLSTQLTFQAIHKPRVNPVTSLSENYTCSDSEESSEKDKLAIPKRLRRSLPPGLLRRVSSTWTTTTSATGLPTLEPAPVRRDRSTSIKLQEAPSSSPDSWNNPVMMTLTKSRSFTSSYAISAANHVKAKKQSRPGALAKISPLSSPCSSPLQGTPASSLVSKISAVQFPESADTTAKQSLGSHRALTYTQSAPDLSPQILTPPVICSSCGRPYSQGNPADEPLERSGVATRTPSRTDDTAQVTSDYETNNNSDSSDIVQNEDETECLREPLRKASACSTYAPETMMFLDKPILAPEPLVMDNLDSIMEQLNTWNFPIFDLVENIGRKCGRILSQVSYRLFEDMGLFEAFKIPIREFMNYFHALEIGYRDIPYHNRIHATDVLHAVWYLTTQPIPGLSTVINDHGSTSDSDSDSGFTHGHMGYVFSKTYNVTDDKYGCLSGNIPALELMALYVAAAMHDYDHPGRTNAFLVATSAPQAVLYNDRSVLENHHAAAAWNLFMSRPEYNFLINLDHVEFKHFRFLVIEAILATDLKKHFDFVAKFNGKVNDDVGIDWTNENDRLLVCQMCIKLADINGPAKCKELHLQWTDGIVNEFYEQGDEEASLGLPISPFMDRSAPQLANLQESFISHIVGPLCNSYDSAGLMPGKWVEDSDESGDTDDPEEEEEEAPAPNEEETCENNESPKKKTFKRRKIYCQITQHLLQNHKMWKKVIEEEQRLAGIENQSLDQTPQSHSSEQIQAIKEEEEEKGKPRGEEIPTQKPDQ
Sequence of cAMP and cAMP-inhibited cGMP 3',5'-cyclic phosphodiesterase 10A (Homo sapiens) (Q9Y233 whole entry): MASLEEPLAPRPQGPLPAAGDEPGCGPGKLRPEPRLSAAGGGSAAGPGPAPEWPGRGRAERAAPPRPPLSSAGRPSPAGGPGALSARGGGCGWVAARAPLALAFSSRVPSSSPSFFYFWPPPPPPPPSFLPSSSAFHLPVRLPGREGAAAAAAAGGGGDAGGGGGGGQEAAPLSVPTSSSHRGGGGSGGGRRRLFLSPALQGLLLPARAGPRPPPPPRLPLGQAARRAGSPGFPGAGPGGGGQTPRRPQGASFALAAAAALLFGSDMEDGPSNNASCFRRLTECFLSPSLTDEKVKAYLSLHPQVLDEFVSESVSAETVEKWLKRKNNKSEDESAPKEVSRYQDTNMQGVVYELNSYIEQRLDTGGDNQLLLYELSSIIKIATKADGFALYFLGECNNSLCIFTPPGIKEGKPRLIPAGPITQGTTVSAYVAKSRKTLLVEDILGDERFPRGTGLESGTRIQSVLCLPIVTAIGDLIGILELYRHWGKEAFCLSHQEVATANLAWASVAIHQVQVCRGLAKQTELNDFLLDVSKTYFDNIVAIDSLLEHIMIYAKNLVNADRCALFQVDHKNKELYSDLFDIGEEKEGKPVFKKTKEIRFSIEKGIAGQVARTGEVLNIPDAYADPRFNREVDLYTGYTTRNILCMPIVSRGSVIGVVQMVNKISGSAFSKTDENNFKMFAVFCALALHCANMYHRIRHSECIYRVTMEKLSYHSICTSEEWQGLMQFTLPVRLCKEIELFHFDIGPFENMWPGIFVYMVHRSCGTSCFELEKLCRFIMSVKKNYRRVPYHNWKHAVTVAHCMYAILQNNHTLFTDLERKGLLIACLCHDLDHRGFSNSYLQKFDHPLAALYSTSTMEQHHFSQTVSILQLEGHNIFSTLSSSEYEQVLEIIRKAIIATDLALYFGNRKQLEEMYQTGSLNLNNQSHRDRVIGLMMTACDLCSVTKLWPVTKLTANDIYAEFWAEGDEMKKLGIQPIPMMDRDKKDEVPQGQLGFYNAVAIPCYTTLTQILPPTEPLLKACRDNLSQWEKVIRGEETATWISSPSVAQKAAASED
Sequence of cGMP-dependent 3',5'-cyclic phosphodiesterase (Homo sapiens) (O00408 whole entry): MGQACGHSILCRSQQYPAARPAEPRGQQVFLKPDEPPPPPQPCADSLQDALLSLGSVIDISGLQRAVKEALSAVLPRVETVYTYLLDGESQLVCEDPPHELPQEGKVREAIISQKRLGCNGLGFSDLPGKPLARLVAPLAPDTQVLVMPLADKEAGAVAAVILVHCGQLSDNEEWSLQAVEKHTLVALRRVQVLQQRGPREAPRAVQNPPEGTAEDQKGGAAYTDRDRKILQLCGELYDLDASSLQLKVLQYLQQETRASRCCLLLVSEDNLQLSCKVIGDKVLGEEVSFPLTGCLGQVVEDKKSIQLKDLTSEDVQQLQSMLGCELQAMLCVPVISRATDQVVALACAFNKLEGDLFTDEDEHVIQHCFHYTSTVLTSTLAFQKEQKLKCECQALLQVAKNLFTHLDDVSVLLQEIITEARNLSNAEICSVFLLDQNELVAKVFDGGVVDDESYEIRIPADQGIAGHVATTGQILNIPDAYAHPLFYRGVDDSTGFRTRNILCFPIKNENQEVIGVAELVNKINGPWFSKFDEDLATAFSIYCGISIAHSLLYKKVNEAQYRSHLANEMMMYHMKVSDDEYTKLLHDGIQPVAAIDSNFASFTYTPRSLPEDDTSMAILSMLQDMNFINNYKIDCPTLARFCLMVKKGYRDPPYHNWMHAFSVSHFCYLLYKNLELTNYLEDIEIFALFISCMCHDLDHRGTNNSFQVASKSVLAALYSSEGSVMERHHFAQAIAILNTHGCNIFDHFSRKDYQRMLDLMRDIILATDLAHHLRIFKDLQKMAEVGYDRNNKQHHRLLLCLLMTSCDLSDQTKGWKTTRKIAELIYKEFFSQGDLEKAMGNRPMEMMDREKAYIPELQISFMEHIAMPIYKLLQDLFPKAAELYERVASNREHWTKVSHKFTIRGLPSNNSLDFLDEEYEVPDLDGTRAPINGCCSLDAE
Sequence of High affinity cGMP-specific 3',5'-cyclic phosphodiesterase 9A (Homo sapiens) (O76083 whole entry): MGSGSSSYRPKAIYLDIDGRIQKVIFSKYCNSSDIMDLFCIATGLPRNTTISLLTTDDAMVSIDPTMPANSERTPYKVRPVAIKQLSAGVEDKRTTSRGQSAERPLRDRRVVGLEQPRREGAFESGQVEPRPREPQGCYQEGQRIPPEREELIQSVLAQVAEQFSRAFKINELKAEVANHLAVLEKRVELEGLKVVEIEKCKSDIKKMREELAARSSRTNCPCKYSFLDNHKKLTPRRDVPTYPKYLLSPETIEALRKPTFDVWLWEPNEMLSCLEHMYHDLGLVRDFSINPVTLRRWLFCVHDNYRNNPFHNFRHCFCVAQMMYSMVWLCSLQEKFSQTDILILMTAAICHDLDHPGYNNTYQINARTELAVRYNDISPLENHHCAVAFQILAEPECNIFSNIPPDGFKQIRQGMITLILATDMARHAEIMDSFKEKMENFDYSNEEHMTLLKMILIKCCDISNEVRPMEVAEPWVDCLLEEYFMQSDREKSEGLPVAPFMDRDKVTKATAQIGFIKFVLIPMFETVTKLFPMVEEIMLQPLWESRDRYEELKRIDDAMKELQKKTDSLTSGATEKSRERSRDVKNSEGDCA

SMILES: N[C@@H](Cc1ccc(O)c(O)c1)C(=O)O
- Activity (Mus musculus [1]): Active

- inhibition [2]: 12%
- inhibition [3]: 4%
- concentration at 0.5 h [4]: 39 ng/g
- Cmax [5]: 570 ng/mL
- Ratio IC50 (Homo sapiens [6]): > 150
- remaining at 1 h [7]: 90%
- pIC50 [8]: 5.54
- inhibition [9]: 33%
- inhibition [10]: 3%
- inhibition [11]: 2%
- AUC [12]: 1370 ng·h/mL
- Kp at 0.5 h [13]: 0.09
- remaining at 1 h [14]: 40%
- Tmax [15]: 15 min
- inhibition [16]: 90%
- Ratio IC50 (Homo sapiens [17]): > 200
- concentration at 0.5 h [18]: 446 ng/mL
- inhibition [19]: 19%
- pIC50 [20]: 7.72
- inhibition [21]: 24%
- remaining at 1 h [22]: 37%
- inhibition [23]: 28%
- pIC50 [24]: 7.92
SMILES: COc1cc(N2CCCNCC2)ccc1-c1nc2c(C)nn(C3CCCCC3)c(=O)c2[nH]1

- pIC50 [24]: 7.49
SMILES: COc1cc(N2CCCN(C(C)=O)CC2)ccc1-c1nc2c(C)nn(C3CCCCC3)c(=O)c2[nH]1

- inhibition [25]: 92%
- pIC50 [24]: 7.12
SMILES: COc1cc(N2CCC(N)CC2)ccc1-c1nc2c(C)nn(C3CCCCCC3)c(=O)c2[nH]1

- inhibition [25]: 7%
SMILES: COc1cc(N2CCC(N)CC2)ccc1-c1nc2c(C)nn(C3CCN(C)CC3)c(=O)c2[nH]1

- inhibition [2]: 9%
- concentration at 0.5 h [26]: 135000 ng/g
- inhibition [3]: 6%
- concentration at 0.5 h [4]: 1140 ng/g
- Cmax [5]: 1480 ng/mL
- Tmax [28]: 30 min
- Ratio IC50 (Homo sapiens [6]): > 150
- Drug uptake(free) (Brain [31]): 763 nM
- Cmax [32]: 6350 ng/mL
- AUC [33]: 5020 ng·h/mL
- Tmax [34]: 15 min
- remaining at 1 h [7]: 43%
- concentration at 0.5 h [35]: 4680 ng/mL
- pIC50 [8]: 5.18
- inhibition [9]: 37%
- inhibition [10]: 3%
- inhibition [11]: 23%
- AUC [12]: 792 ng·h/mL
- Kp at 0.5 h [13]: 1.69
- remaining at 1 h [14]: 68%
- Kp at 0.5 h [36]: 3.43
- Tmax [15]: 15 min
- inhibition [16]: 86%
- Ratio IC50 (Homo sapiens [17]): > 200
- concentration at 0.5 h [18]: 699 ng/mL
- Kp at 0.5 h [37]: 3.05
- inhibition [19]: 0%
- pIC50 [20]: 7.37
- inhibition [21]: 10%
- pIC50 [40]: 7.20
- remaining at 1 h [22]: 4%
- concentration at 0.5 h [41]: 16000 ng/g
- inhibition [23]: 29%
- concentration at 0.5 h [42]: 44200 ng/mL
- Cmax [43]: 44200 ng/mL
- Drug uptake(free) (Brain [44]): 0.2%
- Drug uptake(free) (Brain [45]): 6 nM
- pIC50 [24]: 7.51
- AUC [46]: 168 µg·h/mL
- Drug uptake(free) (Brain [47]): 91 nM
SMILES: COc1cc(N)ccc1-c1nc2c(C)nn(C3CCCCC3)c(=O)c2[nH]1
- Activity (Mus musculus [27]): inactive
- Activity (Mus musculus [29]): Toxic
- Activity (Mus musculus [30]): Toxic
- Activity (Mus musculus [38]): Non-toxic
- Activity (Mus musculus [39]): Toxic

- pIC50 [24]: 7.74
SMILES: COc1cc(N2CCNC(=O)C2)ccc1-c1nc2c(C)nn(C3CCCCC3)c(=O)c2[nH]1
